Measured values reported in patent publication US10077243B2, “Compounds for treating disorders mediated by metabotropic glutamate receptor 5, and methods of use thereof” (Sunovion Pharmaceuticals Inc., priority 2009, dated 2018).

Target: T1, human mGluR5 (Homo sapiens, UniProt P41594)
T1 construct: expressed in transfected cells; host or cells: HEK293 cells stably expressing rat GLAST (EAAT1), stably transfected with pcDNAzeo3.1 carrying synthetic human mGluR5 DNA; zeocin-selected single clones
T1 sequence (P41594 21-1212): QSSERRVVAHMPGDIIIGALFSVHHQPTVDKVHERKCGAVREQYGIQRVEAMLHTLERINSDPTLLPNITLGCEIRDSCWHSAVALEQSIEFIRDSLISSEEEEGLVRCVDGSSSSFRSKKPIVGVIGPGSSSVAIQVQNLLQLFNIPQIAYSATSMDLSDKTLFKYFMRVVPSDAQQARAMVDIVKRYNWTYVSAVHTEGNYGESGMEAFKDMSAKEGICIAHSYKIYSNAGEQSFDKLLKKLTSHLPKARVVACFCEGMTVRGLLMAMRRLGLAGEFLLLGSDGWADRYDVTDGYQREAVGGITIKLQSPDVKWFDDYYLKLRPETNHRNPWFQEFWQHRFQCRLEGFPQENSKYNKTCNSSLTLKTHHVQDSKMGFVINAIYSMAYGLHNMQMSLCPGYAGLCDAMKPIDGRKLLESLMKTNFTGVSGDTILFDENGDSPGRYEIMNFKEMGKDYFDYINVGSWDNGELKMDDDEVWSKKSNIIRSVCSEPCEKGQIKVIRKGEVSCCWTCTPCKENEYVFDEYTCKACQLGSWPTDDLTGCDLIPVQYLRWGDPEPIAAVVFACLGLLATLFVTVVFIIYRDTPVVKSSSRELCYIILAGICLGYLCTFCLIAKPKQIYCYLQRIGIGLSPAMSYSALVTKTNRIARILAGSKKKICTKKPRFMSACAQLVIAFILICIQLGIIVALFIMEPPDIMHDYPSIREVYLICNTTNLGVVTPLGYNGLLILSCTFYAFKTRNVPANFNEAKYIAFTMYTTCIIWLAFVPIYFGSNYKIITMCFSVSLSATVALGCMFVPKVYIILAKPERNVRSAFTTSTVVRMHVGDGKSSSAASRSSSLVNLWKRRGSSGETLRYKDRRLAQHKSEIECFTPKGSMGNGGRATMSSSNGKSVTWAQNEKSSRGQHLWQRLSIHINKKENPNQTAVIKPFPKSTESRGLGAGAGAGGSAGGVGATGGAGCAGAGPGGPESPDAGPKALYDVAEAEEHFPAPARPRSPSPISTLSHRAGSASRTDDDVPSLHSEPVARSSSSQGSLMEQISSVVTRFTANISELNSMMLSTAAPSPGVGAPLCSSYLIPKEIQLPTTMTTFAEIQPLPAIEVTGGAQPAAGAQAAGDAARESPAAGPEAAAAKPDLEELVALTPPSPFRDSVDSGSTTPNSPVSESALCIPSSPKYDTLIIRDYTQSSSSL
Assay: In vitro cell-based FLIPR calcium assay for positive modulation of the activation of mGluR5 by glutamate (PAM EC50)
Details: HEK293/GLAST cells expressing recombinant human mGluR5; FLIPR calcium signal; glutamate added at its EC20; read-out: mGluR5 PAM EC50
Method in brief: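 HEK293/GLAST cells stably expressing mGluR5 were loaded with calcium-sensitive dye (25 °C, 45–60 min) in HBSS/20 mM HEPES. Test compounds were assayed in buffer containing glutamate at that day's EC20, with FLIPR fluorescence recorded. Controls contained 0.3% DMSO without compound.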

Structure (SMILES) | EC50 [nM]
CC1(C)CCc2nc3cc(/C=C/c4ccccc4F)ccc3c(=O)n2C1 [Example 20.12, (E)-3-(2-fluorostyryl)-8,8-dimethyl-8,9-dihydro-6H-pyrido[2,1-b]quinazolin-11(7H)-one] | 30 to 100
CC1(C)CCc2nc3cc(/C=C/c4cccc(C#N)n4)ccc3c(=O)n2C1 [Example 20.13, (E)-6-(2-(8,8-dimethyl-11-oxo-7,8,9,11-tetrahydro-6H-pyrido[2,1-b]quinazolin-3-yl)vinyl)picolinonitrile] | 10 to 30
CC1Cc2nc3cc(/C=C/c4cccc(F)c4)ccc3c(=O)n2C1 (stereo not shown) [Example 20.14, 6-(3-fluorostyryl)-2,3-dihydro-2-methylpyrrolo[2,1-b]quinazolin-9(1H)-one] | 100 to 300
O=c1c2ccc(CCc3ccccc3)cc2nc2n1CCCCC2 [Example 21.1, 3-phenethyl-7,8,9,10-tetrahydroazepino[2,1-b]quinazolin-12(6H)-one] | 100 to 300
O=C(Cc1ccccc1)c1ccc2c(=O)n3c(nc2c1)CCCCC3 [Example 21.3, 3-(2-phenylacetyl)-7,8,9,10-tetrahydroazepino[2,1-b]quinazolin-12(6H)-one] | 100 to 300
CC1(C)CCn2c(nc3cc(CCc4ccccn4)ccc3c2=O)C1 [Example 21.6, 7,7-dimethyl-3-(2-(pyridin-2-yl)ethyl)-8,9-dihydro-6H-pyrido[2,1-b]quinazolin-11(7H)-one] | 300 to 1000
CC1Cc2nc3cc(CCc4cccc(F)c4)ccc3c(=O)n2C1 (stereo not shown) [Example 21.7, 6-(3-fluorophenethyl)-2-methyl-2,3-dihydropyrrolo[2,1-b]quinazolin-9(1H)-one] | 300 to 1000
Cc1cnc(NC(=O)c2ccc3c(=O)n4c(nc3c2)CCC(C)CC4)s1 (stereo not shown) [Example 23.1, 8-methyl-N-(5-methylthiazol-2-yl)-12-oxo-6,7,8,9,10,12-hexahydroazepino[2,1-b]quinazoline-3-carboxamide] | 100 to 300
Cc1cnc(NC(=O)c2ccc3c(=O)n4c(nc3c2)CCOCC4)s1 [Example 23.2, N-(5-methylthiazol-2-yl)-11-oxo-2,4,5,11-tetrahyrdo-1H-[1,4]oxazepino[5,4-b]quinazoline-8-carboxamide] | 100 to 300
O=C(Nc1ccc2c(=O)n3c(nc2c1)CCCCCC3)c1ccc(F)cc1 [Example 24.1, 4-fluoro-N-(13-oxo-7,8,9,10,11,13-hexahydro-6H-azocino[2,1-b]quinazolin-3-yl)benzamide] | 300 to 1000
C/C=C1\CCCCCn2c1nc1cc(C(=O)Nc3ncc(C)s3)ccc1c2=O [Example 25.1, (E)-6-ethylidene-N-(5-methylthiazol-2-yl)-13-oxo-7,8,9,10,11,13-hexahydro-6H-azocino[2,1-b]quinazoline-3-carboxamide] | < 10
Cc1cnc(NC(=O)c2ccc3c(=O)n4c(nc3c2)C(C)CCCCC4)s1 (stereo not shown) [Example 25.3, 6-methyl-N-(5-methylthiazol-2-yl)-13-oxo-7,8,9,10,11,13-hexahydro-6H-azocino[2,1-b]quinazoline-3-carboxamide] | 10 to 30
O=C(Nc1ccc(F)cc1)c1ccc2c(c1)N=C1CCCCCCN1C2 [Example 26.1, N-(4-fluorophenyl)-7,8,9,10,11,13-hexahydro-6H-azocino[2,1-b]quinazoline-3-carboxamide] | 300 to 1000
Cc1cnc(NC(=O)c2ccn3c(=O)c4c(nc3c2)CCCCCC4)s1 [Example 28.1, N-(5-methylthiazol-2-yl)-12-oxo-7,8,9,10,11,12-hexahydro-6H-cycloocta[d]pyrido[1,2-a]pyrimidine-3-carboxamide] | < 10
O=C(Nc1ccc(F)cc1)c1ccn2c(=O)c3c(nc2c1)CCCCCC3 [Example 28.2, N-(4-fluorophenyl)-12-oxo-7,8,9,10,11,12-hexahydro-6H-cycloocta[d]pyrido[1,2-a]pyrimidine-3-carboxamide] | 300 to 1000
Cc1cnc(NC(=O)c2ccn3c(=O)c4c(nc3c2)CCCCC4)s1 [Example 28.3, N-(5-methylthiazol-2-yl)-11-oxo-6,7,8,9,10,11-hexahydrocyclohepta[d]pyrido[1,2-a]pyrimidine-3-carboxamide] | 30 to 100
